Experimental data from PubChem BioAssay AID1963850 (Molecular Pharmacology Branch, DTP, NCI, 2024).

System: 192522-019-R-J2-PDC complex tumor spheroid viability
Experiment: Anticancer human tumor 192522-019-R-J2-PDC patient-derived colon adenocarcinoma cell line growth inhibition [POLQ]
Conditions: for IC50: curve of first compound; for viability, T/C: stronger effect = lower value
Experimental: Multicellular complex tumor spheroid response to Polymerase (POL) inhibitors (novobiocin, ART-558, RP6685) in combination with a variety of drugs and investigational agents in selected tumor cell lines
The POL inhibitors (novobiocin, ART-558, and RP6685) were evaluated both individually and in combination with standard of care and investigational anticancer small molecules within a complex spheroid model of solid tumors. . Complex spheroids include a stromal component modeled by human endothelial cells (HUVEC) and fibroblasts modeled by human mesenchymal stem cells (MSCs). The concentration ranges selected for each drug and investigational agent were based upon clinically achievable concentrations if the clinical Cmax of the agent was known.
Compounds. The drugs and investigational agents: novobiocin (NSC847541), ART-558 (NSC835418), RP-6685 (NSC848927), peposertib (NSC802822), ceralasertib (NSC780249), elimusertib (NSC800525), camonsertib (NSC841442), AZD-1390 (NSC803789), olaparib (NSC753686), talazoparib (NSC767125), rucaparib (NSC756644), sotorasib (NSC818433), MRTX-1133 (NSC836407), SN-38 (NSC673596), topotecan (NSC609699), epotoside (NSC141540), doxorubicin (NSC123127), gemcitabine (NSC613327), 5-fluorouracil (NSC19893), paclitaxel (NSC125973), vemurafenib (NSC761431), MSA-2 (NSC828583), SN-011 (NSC837082), adavosertib (NSC754352), prexasertib (NSC758257), carboplatin (NSC241240) and oxaliplatin (NSC266046), were obtained from the National Cancer Institute (NCI) Developmental Therapeutics Program Chemical Repository (21). The FDA-approved anticancer drug set is available from the Developmental Therapeutics Program at https://dtp.cancer.gov/organization/dscb/obtaining/. […] The stock solutions were prepared in dimethyl sulfoxide (DMSO, Sigma-Aldrich, St. Louis, MO, cat. D2650), except for the platinum compounds which were prepared in saline (Quality Biological, Gaithersburg, MD, cat. 114-055-101), at 800-fold the tested concentration and stored at -70 degrees C prior to their use. All drugs and investigational agents were tested over a range starting from a high concentration at or near the clinical Cmax and decreasing in half-log increments. If the clinical Cmax for an agent had not been determined, the highest concentration tested was 10 microM, except for SN-38, which was tested at a high concentration of 1 microM.
Cell Culture. All cells were maintained in an incubator at 37 degrees C and 5% CO2 with 95% humidity. The PDC lines were cultured according to standard operating procedures established by the NCI PDMR (https://pdmr.cancer.gov). Table 3 of the manuscript, lists the cell lines along with the number of the three cell types plated to form the mct-spheroids and media for tumor cell growth. After thawing, all PDC lines, except 997537-175-T-J1-PDC and 415267-285-R-J2-PDC, were cultured in Matrigel-coated flasks prepared with a working solution of 1X Ham's F-12 nutrient mix, without supplementation (Thermo Fisher Scientific, cat. 11765054), 100 U/mL penicillin-streptomycin (Thermo Fisher Scientific, cat. 15140122), and 2.5% Matrigel (Corning Inc., Corning, NY, cat. 354248) for the first three passages. The two PDC lines 997537-175-T-J1-PDC and 415267-285-R-J2-PDC were cultured on uncoated flasks. The 857933-349-R-J2-PDC line was cultured in 6C/Colon 1B media containing advanced DMEM/F-12 (Thermo Fisher Scientific, cat. 12634028), 10 mM HEPES (Thermo Fisher Scientific, cat. 15630080), 1X GlutaMAX supplement (Thermo Fisher Scientific, cat. 35050061), 0.1 mg/mL primocin (InvivoGen, San Diego, CA, cat. ant-pm-2), 10% defined fetal bovine serum, heat inactivated (HyClone Laboratories Inc., Logan, UT, cat. SH30070.03HI), 50% L-WRN conditioned media (ATCC, cat. CRL-3276), 1.25 mM N-Acetyl-L-cysteine (Sigma-Aldrich, cat. A9165), 10 mM nicotinamide (Sigma-Aldrich, cat. N0636), 1X B-27 supplement (Thermo Fisher Scientific, cat. 17504044), 1X N-2 supplement (Thermo Fisher Scientific, cat. […]

[1] = second compound 0.0316 µM, first compound 0.0316 µM
[2] = second compound 0.0316 µM, first compound 0.1 µM
[3] = second compound 0.0316 µM, first compound 0.316 µM
[4] = second compound 0.0316 µM, first compound 1 µM
[5] = second compound 0.1 µM, first compound 0.0316 µM
[6] = second compound 0.1 µM, first compound 0.1 µM
[7] = second compound 0.1 µM, first compound 0.316 µM
[8] = second compound 0.1 µM, first compound 1 µM
[9] = second compound 0.316 µM, first compound 0.0316 µM
[10] = second compound 0.316 µM, first compound 0.1 µM
[11] = second compound 0.316 µM, first compound 0.316 µM
[12] = second compound 0.316 µM, first compound 1 µM
[13] = second compound 1 µM, first compound 0.0316 µM
[14] = second compound 1 µM, first compound 0.1 µM
[15] = second compound 1 µM, first compound 0.316 µM
[16] = second compound 1 µM, first compound 1 µM
[17] = second compound 3.16 µM, first compound 0.0316 µM
[18] = second compound 3.16 µM, first compound 0.1 µM
[19] = second compound 3.16 µM, first compound 0.316 µM
[20] = second compound 3.16 µM, first compound 1 µM
[21] = second compound 10 µM, first compound 0.0316 µM
[22] = second compound 10 µM, first compound 0.1 µM
[23] = second compound 10 µM, first compound 0.316 µM
[24] = second compound 10 µM, first compound 1 µM
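Further: spheroids exposed to drugs for seven days before reading.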
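Wherever viability, T/C is given: 100% = DMSO vehicle control viability in luminescence.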

CCc1c2c(nc3ccc(O)cc13)-c1cc3c(c(=O)n1C2)COC(=O)[C@]3(O)CC + Nc1ccc(C#CCN(C(=O)Cc2ncc(C(F)(F)F)cc2C(F)(F)F)c2ccc(F)cc2)nn1
IC50 (second compound 0.0316 µM): 232 nM | IC50 (second compound 0.1 µM): 176 nM | IC50 (second compound 0.316 µM): 204 nM | IC50 (second compound 1 µM): 129 nM | IC50 (second compound 3.16 µM): 160 nM | IC50 (second compound 10 µM): 111 nM | viability, T/C (second compound 0.0316 µM, first compound 0.00316 µM): 92.1% | viability, T/C (second compound 0.0316 µM, first compound 0.01 µM): 75.4% | viability, T/C [1]: 70.3% | viability, T/C [2]: 62.1% | viability, T/C [3]: 44.2% | viability, T/C [4]: 35.7% | viability, T/C (second compound 0.1 µM, first compound 0.00316 µM): 94.8% | viability, T/C (second compound 0.1 µM, first compound 0.01 µM): 77.6% | viability, T/C [5]: 78.6% | viability, T/C [6]: 60% | viability, T/C [7]: 38.1% | viability, T/C [8]: 31% | viability, T/C (second compound 0.316 µM, first compound 0.00316 µM): 99% | viability, T/C (second compound 0.316 µM, first compound 0.01 µM): 76.2% | viability, T/C [9]: 78.8% | viability, T/C [10]: 57% | viability, T/C [11]: 43.5% | viability, T/C [12]: 31.9% | viability, T/C (second compound 1 µM, first compound 0.00316 µM): 103% | viability, T/C (second compound 1 µM, first compound 0.01 µM): 71.5% | viability, T/C [13]: 69.8% | viability, T/C [14]: 57.6% | viability, T/C [15]: 36.4% | viability, T/C [16]: 31% | viability, T/C (second compound 3.16 µM, first compound 0.00316 µM): 96.9% | viability, T/C (second compound 3.16 µM, first compound 0.01 µM): 79.8% | viability, T/C [17]: 72.5% | viability, T/C [18]: 56% | viability, T/C [19]: 39.4% | viability, T/C [20]: 36.5% | viability, T/C (second compound 10 µM, first compound 0.00316 µM): 94% | viability, T/C (second compound 10 µM, first compound 0.01 µM): 76.7% | viability, T/C [21]: 71.5% | viability, T/C [22]: 50.6% | viability, T/C [23]: 36.2% | viability, T/C [24]: 34.4%

CNCc1ccc(-c2[nH]c3cc(F)cc4c3c2CCNC4=O)cc1 + Nc1ccc(C#CCN(C(=O)Cc2ncc(C(F)(F)F)cc2C(F)(F)F)c2ccc(F)cc2)nn1
IC50 (second compound 0.0316 µM): > 10000 nM | IC50 (second compound 0.1 µM): > 10000 nM | IC50 (second compound 0.316 µM): > 10000 nM | IC50 (second compound 1 µM): > 10000 nM | IC50 (second compound 3.16 µM): > 10000 nM | IC50 (second compound 10 µM): > 10000 nM | viability, T/C [1]: 103% | viability, T/C [2]: 106% | viability, T/C [3]: 102% | viability, T/C [4]: 113% | viability, T/C (second compound 0.0316 µM, first compound 3.16 µM): 122% | viability, T/C (second compound 0.0316 µM, first compound 10 µM): 111% | viability, T/C [5]: 105% | viability, T/C [6]: 98.7% | viability, T/C [7]: 110% | viability, T/C [8]: 102% | viability, T/C (second compound 0.1 µM, first compound 3.16 µM): 104% | viability, T/C (second compound 0.1 µM, first compound 10 µM): 105% | viability, T/C [9]: 107% | viability, T/C [10]: 106% | viability, T/C [11]: 96.5% | viability, T/C [12]: 103% | viability, T/C (second compound 0.316 µM, first compound 3.16 µM): 106% | viability, T/C (second compound 0.316 µM, first compound 10 µM): 107% | viability, T/C [13]: 119% | viability, T/C [14]: 100% | viability, T/C [15]: 105% | viability, T/C [16]: 104% | viability, T/C (second compound 1 µM, first compound 3.16 µM): 111% | viability, T/C (second compound 1 µM, first compound 10 µM): 107% | viability, T/C [17]: 103% | viability, T/C [18]: 108% | viability, T/C [19]: 95.3% | viability, T/C [20]: 104% | viability, T/C (second compound 3.16 µM, first compound 3.16 µM): 110% | viability, T/C (second compound 3.16 µM, first compound 10 µM): 101% | viability, T/C [21]: 108% | viability, T/C [22]: 101% | viability, T/C [23]: 105% | viability, T/C [24]: 102% | viability, T/C (second compound 10 µM, first compound 3.16 µM): 110% | viability, T/C (second compound 10 µM, first compound 10 µM): 106%
